Results on three molecules are retold here after EPA's ToxRefDB 2.

Data set [1] has as its system rat. Conditions: Subchronic oral toxicity in rodents, sprague dawley, Feed, dose end: 13 week.
Data set [2] deals with rabbit. Particulars: Prenatal developmental toxicity study, himalayan, Oral, Gavage/Intubation, dose end: 18 GD.
Data set [3] has as its system rabbit. Conditions: Prenatal developmental toxicity study, himalayan, Oral, Gavage/Intubation, dose end: 19 GD.
Data set [4] concerns rat. Particulars: Combined chronic toxicity/carcinogenicity, sprague dawley, Oral, Feed, dose end: 115 week.
The subject of data set [5] is dog. Particulars: Chronic toxicity, beagle, Oral, Feed, dose end: 53 week.
The subject of data set [6] is rat. Particulars: Neurotoxicity screening battery, wistar, Oral, Feed, dose end: 90 day, group: cannot be grouped.
Data set [7] has as its system mouse. Conditions: Subchronic oral toxicity in rodents, b6c3f1, Feed, dose end: 13 week, group: systemic.
Data set [8] relates to rat. Particulars: Subchronic oral toxicity in rodents, fischer, Feed, dose end: 13 week, group: systemic, systemic / in life observation / body weight / body weight + systemic / in life observation / body weight / body weight gain + systemic / in….
Data set [9] relates to mouse. Particulars: Carcinogenicity; cd1; Oral; Feed; dose end: 18 month; group: systemic; systemic / pathology gross / urinary bladder / calculus + systemic / pathology microscopic / urinary bladder / hyperplasia + systemic / ….
For data set [10], the system named is dog. Conditions: Subchronic oral toxicity in nonrodent, beagle, Capsule, dose end: 90 day, group: systemic.
Data set [11] relates to rat. Conditions: Combined chronic toxicity/carcinogenicity; sprague dawley; Oral; Feed; dose end: 22 month; group: systemic; systemic / clinical chemistry / albumin / albumin + systemic / pathology microscopic / heart / mineralization + systemic / pathology ….
For data set [12], the system named is dog. Particulars: Chronic toxicity; beagle; Oral; Capsule; dose end: 12 month; group: systemic; systemic / pathology microscopic / urinary bladder / calculus + systemic / pathology microscopic / urinary bladder / crystals + systemic / ….
In data set [13] the test system is rat. Particulars: Subchronic oral toxicity in rodents, sprague dawley, Feed, dose end: 13 week, group: systemic, systemic / in life observation / body weight / body weight + systemic / in life observation / body weight / body weight gain + systemic / ….
Setting [14] is: group: cholinesterase, cholinesterase / cholinesterase / cholinesterase / cholinesterase (che).
Where [15] appears, read: group: cholinesterase, cholinesterase / cholinesterase / cholinesterase / erythrocyte cholinesterase (che).
The mark [16] stands for this setting: group: systemic, systemic / organ weight / liver / relative to body weight + systemic / pathology microscopic / liver / necrosis.
Where [17] appears, read: group: maternal, reproductive / reproductive performance / aborted / aborted + reproductive / reproductive performance / resorptions / resorptions + systemic….
The mark [18] stands for this setting: group: developmental, developmental / developmental malformation / bone / cranioschisis + developmental / developmental malformation / bone / exencephaly + ….
The mark [19] stands for this setting: group: maternal, systemic / in life observation / clinical signs / swelling.
[20] abbreviates: group: cholinesterase, cholinesterase / cholinesterase / cholinesterase / plasma cholinesterase (che) + cholinesterase / cholinesterase / cholinesterase / brain (….
[21] abbreviates: group: systemic, systemic / pathology microscopic / liver / eosinophilic focus.
[22] abbreviates: group: systemic, systemic / clinical chemistry / alkaline phosphatase (alp/alk) / alkaline phosphatase (alp/alk).
[23] abbreviates: systemic / organ weight / liver / relative to body weight + systemic / pathology microscopic / liver / pigmentation.
Setting [24] is: systemic / pathology microscopic / urinary bladder / calculus + systemic / pathology microscopic / urinary bladder / hemorrhage + systemic….

As to `CC(Cc1ccc(C(C)(C)C)cc1)CN1C[C@@H](C)O[C@@H](C)C1` (stereo partly drawn) [(2R,6S)-Fenpropimorph], the LOAEL with rat [1] (setting [14]) was over 1.54 mg/kg/day; in the data set on rat [1] (setting [16]), 1.54 mg/kg/day; in the data set with rabbit [2] (group: developmental, developmental / developmental malformation / general / [other]), 36 mg/kg/day; in the data set on rabbit [2] (setting [17]), 36 mg/kg/day; in the data set on rabbit [3] (setting [18]), 30 mg/kg/day; with rabbit [3] (setting [19]), 30 mg/kg/day. In addition, the lowest-observed-adverse-effect level (LOAEL) is over 8.8 mg/kg/day with rat [4] (setting [20]); 8.8 mg/kg/day in the data set on rat [4] (group: systemic, systemic / pathology microscopic / liver / hypertrophy + systemic / pathology microscopic / liver / eosinophilic focus + systemic / …); 12.3 mg/kg/day in the data set on dog [5] (setting [14]); 12.3 mg/kg/day with dog [5] (setting [22]); 7.1 mg/kg/day in the data set on rat [6] (systemic / organ weight / liver / absolute + systemic / organ weight / liver / relative to body weight). The no-observed-adverse-effect level (NOAEL) is at least 1.54 mg/kg/day in the data set on rat [1] (setting [14]); 0.768 mg/kg/day with rat [1] (setting [16]); 15 mg/kg/day in the data set with rabbit [3] (setting [18]); 15 mg/kg/day in the data set with rabbit [3] (setting [19]); at least 8.8 mg/kg/day with rat [4] (setting [20]); 1.7 mg/kg/day with rat [4] (group: systemic, systemic / pathology microscopic / liver / hypertrophy + systemic / organ weight / liver / relative to body weight). The results for the NOAEL in the data set on dog [5] (setting [14]), with dog [5] (setting [22]) and in the data set on rat [6] (systemic / organ weight / liver / absolute + systemic / organ weight / liver / relative to body weight + cholinesterase / cholinesterase / …) were 3.2 mg/kg/day, 3.2 mg/kg/day and 0.7 mg/kg/day, respectively. Moreover, the LEL is 0.465 mg/kg/day in the data set on rat [1] (setting [15]); 0.768 mg/kg/day in the data set on rat [1] (setting [16]); 36 mg/kg/day with rabbit [2] (group: developmental, developmental / developmental malformation / general / [other] + developmental / developmental malformation / bone / misshapen); 36 mg/kg/day in the data set on rabbit [2] (setting [17]); 30 mg/kg/day with rabbit [3] (setting [18]); 30 mg/kg/day with rabbit [3] (setting [19]). For the same molecule, the LEL was 0.2 mg/kg/day with rat [4] (setting [20]); 0.2 mg/kg/day in the data set with rat [4] (setting [21]); 12.3 mg/kg/day in the data set on dog [5] (setting [14]); 12.3 mg/kg/day with dog [5] (setting [22]); 0.8 mg/kg/day with rat [6] (cholinesterase / cholinesterase / cholinesterase / cholinesterase (che)). The NEL in the data set on rat [1] (setting [15]) is under 0.465 mg/kg/day; in the data set on rat [1] (setting [16]) it was 0.382 mg/kg/day; with rabbit [3] (setting [18]), 15 mg/kg/day; with rabbit [3] (setting [19]), 15 mg/kg/day; in the data set on rat [4] (setting [20]), under 0.2 mg/kg/day; with rat [4] (setting [21]), under 0.2 mg/kg/day. Moreover, the NEL in the data set on dog [5] (setting [14]) was 3.2 mg/kg/day; in the data set on dog [5] (setting [22]), 3.2 mg/kg/day; in the data set with rat [6] (cholinesterase / cholinesterase / cholinesterase / cholinesterase (che) + systemic / clinical chemistry / alanine aminotransferase (alt/sgpt…), 0.1 mg/kg/day.
For `Nc1c(Br)cc(Br)c2c1C(=O)c1ccccc1C2=O` [1-Amino-2,4-dibromoanthraquinone], in the data set on mouse [7] (setting [23]), the LEL was found to be 500 mg/kg/day and the NEL was under 500 mg/kg/day. In the data set with mouse [7] (systemic / pathology microscopic / liver / hypertrophy), this molecule showed an LOAEL of 1850 mg/kg/day. The NOAEL with mouse [7] (systemic / pathology microscopic / liver / hypertrophy + systemic / in life observation / body weight / body weight gain + systemic / in …) is 1080 mg/kg/day. In the data set with rat [8], the LEL turned out to be 150 mg/kg/day, the LOAEL is 150 mg/kg/day, the NEL is under 150 mg/kg/day and the NOAEL was under 150 mg/kg/day.
In the case of `CCS(=O)(=O)c1nc2ccccn2c1S(=O)(=O)NC(=O)Nc1nc(OC)cc(OC)n1` [Sulfosulfuron], the LEL is 394 mg/kg/day in the data set on mouse [9]; 100 mg/kg/day in the data set on dog [10] (systemic / pathology microscopic / urinary bladder / calculus); 244 mg/kg/day with rat [11]; 500 mg/kg/day in the data set with dog [12]; 1280 mg/kg/day in the data set with rat [13]. Also, the LOAEL in the data set with mouse [9] was 394 mg/kg/day; in the data set with dog [10] (systemic / urinalysis / sediment microscopic / crystalluria) it was 300 mg/kg/day; with rat [11], 244 mg/kg/day; in the data set with dog [12] it was 500 mg/kg/day; in the data set with rat [13], 1280 mg/kg/day. The NEL was 93.4 mg/kg/day in the data set with mouse [9]; 30 mg/kg/day with dog [10] (setting [24]); 24.4 mg/kg/day in the data set with rat [11]; 100 mg/kg/day in the data set with dog [12]; 370 mg/kg/day in the data set with rat [13]. The NOAEL is 93.4 mg/kg/day in the data set with mouse [9]; 100 mg/kg/day in the data set on dog [10] (setting [24]); 24.4 mg/kg/day in the data set with rat [11]; 100 mg/kg/day in the data set with dog [12]; 370 mg/kg/day with rat [13].

Usually LOAEL stands for the lowest tested level that showed an adverse finding. Usually NOAEL stands for the highest dose or exposure tested at which no adverse effect was seen.
